Measured values as given in US20240350542A1, “ANTICANCER T CELL THERAPY PRODUCT-ASSISTING COMPOSITION COMPRISING DEPLETING ANTI-CD4 MONOCLONAL ANTIBODY AND USE THEREOF” (NATIONAL CANCER CENTER, priority 2018, published 2024).
Read-outs that look alike come from different tables or passages of the source.

Columns and labels:
[1] = tested on: B16-F10 melanoma cancer cells
Method: (§1) Specifically, 2×10^5 B16-F10 melanoma cancer cells were subcutaneously injected into the dorsal area of a C57BL/6 mouse to induce the formation of cancer tissue. At the same time, aPmel-1 was prepared in the same manner as in Example 1. aPmel-1 and IL-2 were administered in the same manner as in Example 1, and transient immunodeficiency was induced by intraperitoneally injecting 150, 200 and 300 mg/kg of cyclophosphamide (CTX) two days before the aPmel-1 administration. In addition, to confirm a period of maintaining transient immunodeficiency according to the dose of CTX, 150, 200 and 300 mg/kg of CTX was intraperitoneally injected into C57BL/6 mice once, and an inguinal lymph node and the spleen of the mice were collected, followed by single cell suspension and then counting a cell number.

[2] = tested on: inguinal lymph node and spleen cell number
Method: as §1

With `O=P1(N(CCCl)CCCl)NCCCO1` (stereo not drawn) [CTX, cyclophosphamide] the “toxicity to the mouse” value ([1]; 300 mg/kg or more of CTX) was “can be toxic to the mouse, leading to the death of the mouse”, the survival of mouse ([1]; C57BL/6, 150 mg/kg CTX only) was “up to 35 days” and the “growth of cancer tissue” value ([1]; C57BL/6, 150 mg/kg CTX only, vs NT) was “cancer tissue grew more slowly”. The “growth of cancer tissue” value ([1]; C57BL/6, 200 mg/kg CTX only) was “slower growth of cancer tissue than the 150 mg/kg CTX-administered mouse”, the survival of mouse ([1]; C57BL/6, 200 mg/kg CTX only) was “up to 45 days” and the “growth of cancer tissue” value ([1]; C57BL/6, 300 mg/kg CTX only) was “slower growth of cancer tissue than when 200 mg/kg CTX-administered mouse”. For the same compound, the survival of mouse ([1]; C57BL/6, 300 mg/kg CTX only) was “up to 60 days”, the transient immunodeficiency effect ([2]; C57BL/6, 150 mg/kg CTX) was “insignificant” and the “period the immunodeficiency effect was maintained” value ([2]; C57BL/6, 200 mg/kg CTX intraperitoneally once) was “approximately 2 weeks”.
